In ChEMBL document CHEMBL3046451, “Design, synthesis, characterization, and in vitro antimicrobial action of novel trisubstituted s-triazines” (2012):
Values after ≈ are worked out from the molar mass of the structure shown.

Key:
Assay type in all cases: functional
Candida albicans [1] = experiment: Antifungal activity against Candida albicans MTCC 183 after 48 hr by agar streak dilution method; conditions: MTCC 183, 48 h
Aspergillus niger [2] = experiment: Antifungal activity against Aspergillus niger MTCC 282 after 48 hr by agar streak dilution method; conditions: MTCC 282, 48 h
Candida albicans [3] = experiment: Antifungal activity against Candida albicans MTCC 183 after 24 hr by paper disk diffusion method; also: test concentration or dose not given here
Aspergillus niger [4] = experiment: Antifungal activity against Aspergillus niger MTCC 282 after 24 hr by paper disk diffusion method; also: test concentration or dose not given here
Shigella flexneri [5] = experiment: Antibacterial activity against Shigella flexneri MTCC 1457 after 24 hr by agar streak dilution method; conditions: MTCC 1457, 24 h
Proteus vulgaris [6] = experiment: Antibacterial activity against Proteus vulgaris MTCC 1771 after 24 hr by agar streak dilution method; conditions: MTCC 1771, 24 h
Salmonella typhi [7] = experiment: Antibacterial activity against Salmonella enterica subsp. enterica serovar Typhi MTCC 733 after 24 hr by agar streak dilution method; conditions: MTCC 733, 24 h
Klebsiella pneumoniae = experiment: Antibacterial activity against Klebsiella pneumoniae MTCC 109 after 24 hr by agar streak dilution method; conditions: MTCC 109, 24 h
Pseudomonas aeruginosa [8] = experiment: Antibacterial activity against Pseudomonas aeruginosa MTCC 741 after 24 hr by agar streak dilution method; conditions: MTCC 741, 24 h
Escherichia coli [9] = experiment: Antibacterial activity against Escherichia coli MTCC 739 after 24 hr by agar streak dilution method; conditions: MTCC 739, 24 h
Bacillus cereus [10] = experiment: Antibacterial activity against Bacillus cereus MTCC 619 after 24 hr by agar streak dilution method; conditions: MTCC 619, 24 h
Staphylococcus aureus [11] = experiment: Antibacterial activity against Staphylococcus aureus MTCC 96 after 24 hr by agar streak dilution method; conditions: MTCC 96, 24 h
Shigella flexneri [12] = experiment: Antibacterial activity against Shigella flexneri MTCC 1457 after 24 hr by paper disk diffusion method
Proteus vulgaris [13] = experiment: Antibacterial activity against Proteus vulgaris MTCC 1771 after 24 hr by paper disk diffusion method; also: test concentration or dose not given here
Salmonella typhi [14] = experiment: Antibacterial activity against Salmonella enterica subsp. enterica serovar Typhi MTCC 733 after 24 hr by paper disk diffusion method
Pseudomonas aeruginosa [15] = experiment: Antibacterial activity against Pseudomonas aeruginosa MTCC 741 after 24 hr by paper disk diffusion method
Escherichia coli [16] = experiment: Antibacterial activity against Escherichia coli MTCC 739 after 24 hr by paper disk diffusion method
Bacillus cereus [17] = experiment: Antibacterial activity against Bacillus cereus MTCC 619 after 24 hr by paper disk diffusion method; also: test concentration or dose not given here
Staphylococcus aureus [18] = experiment: Antibacterial activity against Staphylococcus aureus MTCC 96 after 24 hr by paper disk diffusion method

Compound | MIC (Candida albicans [1]) [µg/mL] | MIC (Aspergillus niger [2]) [µg/mL] | inhibition zone (IZ) (Candida albicans [3]) [mm] | inhibition zone (IZ) (Aspergillus niger [4]) [mm] | MIC (Shigella flexneri [5]) [µg/mL] | MIC (Proteus vulgaris [6]) [µg/mL] | MIC (Salmonella typhi [7]) [µg/mL] | MIC (Klebsiella pneumoniae) [µg/mL] | MIC (Pseudomonas aeruginosa [8]) [µg/mL] | MIC (Escherichia coli [9]) [µg/mL] | MIC (Bacillus cereus [10]) [µg/mL] | MIC (Staphylococcus aureus [11]) [µg/mL] | inhibition zone (IZ) (Shigella flexneri [12]) [mm] | inhibition zone (IZ) (Proteus vulgaris [13]) [mm] | inhibition zone (IZ) (Salmonella typhi [14]) [mm] | inhibition zone (IZ) (Pseudomonas aeruginosa [15]) [mm] | inhibition zone (IZ) (Escherichia coli [16]) [mm] | inhibition zone (IZ) (Bacillus cereus [17]) [mm] | inhibition zone (IZ) (Staphylococcus aureus [18]) [mm]
CCOC(=O)CNc1nc(Nc2ccc(C#N)cc2)nc(Oc2cc(=O)n(C)c3ccccc23)n1 | > 50 | 50 (≈ 106 µM) | <5 | 9 | 50 (≈ 106 µM) | 12.5 (≈ 26.5 µM) | 50 (≈ 106 µM) | 50 (≈ 106 µM) | 50 (≈ 106 µM) | 50 (≈ 106 µM) | 50 (≈ 106 µM) | 50 (≈ 106 µM) | 11 | 15 | 8 | <5 | 7 | 9 | 6
Cn1c(=O)cc(Oc2nc(NCCO)nc(Nc3ccc(C#N)cc3)n2)c2ccccc21 | > 50 | > 50 | <5 | <5 | 50 (≈ 116 µM) | 50 (≈ 116 µM) | 50 (≈ 116 µM) | 50 (≈ 116 µM) | 50 (≈ 116 µM) | 50 (≈ 116 µM) | 50 (≈ 116 µM) | 50 (≈ 116 µM) | 7 | 7 | 9 | 9 | <5 | <5 | <5
CCNc1nc(Nc2ccc(C#N)cc2)nc(Oc2cc(=O)n(C)c3ccccc23)n1 | > 50 | > 50 | <5 | <5 | 50 (≈ 121 µM) | 50 (≈ 121 µM) | 50 (≈ 121 µM) | 50 (≈ 121 µM) | 12.5 (≈ 30.2 µM) | 50 (≈ 121 µM) | 50 (≈ 121 µM) | 50 (≈ 121 µM) | 7 | <5 | 9 | 12 | 8 | <5 | 10
Cn1c(=O)cc(Oc2nc(NCC(=O)O)nc(Nc3ccc(C#N)cc3)n2)c2ccccc21 | > 50 | 50 (≈ 113 µM) | <5 | 7 | 50 (≈ 113 µM) | 25 (≈ 56.4 µM) | 50 (≈ 113 µM) | 50 (≈ 113 µM) | 50 (≈ 113 µM) | 50 (≈ 113 µM) | 50 (≈ 113 µM) | 50 (≈ 113 µM) | 9 | 13 | 8 | 8 | <5 | 7 | <5
CCN(CC)c1nc(Nc2ccc(C#N)cc2)nc(Oc2cc(=O)n(C)c3ccccc23)n1 | 50 (≈ 113 µM) | 50 (≈ 113 µM) | 9 | 9 | 50 (≈ 113 µM) | 50 (≈ 113 µM) | 50 (≈ 113 µM) | 50 (≈ 113 µM) | 50 (≈ 113 µM) | 50 (≈ 113 µM) | 12.5 (≈ 28.3 µM) | 25 (≈ 56.6 µM) | 10 | <5 | 10 | 10 | 11 | 16 | 13
Cn1c(=O)cc(Oc2nc(NCCCl)nc(Nc3ccc(C#N)cc3)n2)c2ccccc21 | 50 (≈ 112 µM) | 50 (≈ 112 µM) | 9 | 8 | 50 (≈ 112 µM) | 50 (≈ 112 µM) | 25 (≈ 55.8 µM) | 50 (≈ 112 µM) | 50 (≈ 112 µM) | 25 (≈ 55.8 µM) | 50 (≈ 112 µM) | 25 (≈ 55.8 µM) | <5 | 8 | 13 | 7 | 15 | 11 | 12
